Data on 33 molecules can be found in patent US10669268B2, “Bicyclic derivatives” (Hoffmann-La Roche Inc., priority 2012, dated 2020).

As usually defined, the IC50 is the midpoint of a concentration-inhibition curve. Higher therefore signals weaker potency in that assay.

SMILES strings stand for the structures.

This assay has as its target ATX (human His-tagged) (Homo sapiens (Human), UniProt Q13822). Nature of the assay: Human ATX enzyme inhibition assay (fluorescence quenching, MR121 substrate). It counts as biochemical. The settings on record: 30 nM ATX, 1 μM MR121 substrate, 30° C., pH 8.0. The gist of the method:
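Tris-HCl buffer at pH 8.0 contained 140 mM NaCl, 5 mM KCl, 1 mM each CaCl2 and MgCl2, and 0.01% Triton X-100. The MR121 substrate (1 μM final) was incubated with enzyme for 15 min at 30 °C, and activity was read by fluorescence quenching.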
Regarding `O=C(/C=C/c1ccc(-c2ccccc2)cn1)N1C[C@@H]2CN(C(=O)c3ccc4[nH]nnc4c3)C[C@H]2C1` [Example 15.84, (E)-1-[(3aR,6aR)-5-(1H-benzotriazole-5-carbonyl)-hexahydro-pyrrolo[3,4-c]pyrrol-2-yl]-3-(5-phenyl-pyridin-2-yl)-prop-2-en-1-one], the IC50 is 12 nM.

Molecule `O=C(CCc1ccc(-c2ccccc2)nc1)N1C[C@@H]2CN(C(=O)c3ccc4[nH]nnc4c3)C[C@H]2C1` [Example 15.85] registered an IC50 of 29 nM.

Regarding `CC(C)c1ccccc1OCC(=O)N1C[C@@H]2CN(C(=O)c3ccc4[nH]nnc4c3)C[C@H]2C1` [Example 15.86], the IC50 amounted to 19 nM.

Consider `O=C(COc1ccccc1C(F)(F)F)N1C[C@@H]2CN(C(=O)c3ccc4[nH]nnc4c3)C[C@H]2C1` [Example 15.87], for which half-maximal inhibition (IC50) was put at 103 nM.

In the case of `O=C(COc1ccccc1-c1ccccc1)N1C[C@@H]2CN(C(=O)c3ccc4[nH]nnc4c3)C[C@H]2C1` [Example 15.88], 27 nM corresponded to half-maximal inhibition (IC50).

Consider `O=C(/C=C/N1C[C@@H]2CN(C(=O)[C@@H]3CCc4[nH]nnc4C3)C[C@H]2C1)c1ccc(OC(F)(F)F)cc1` [Example 15.89], for which half-maximal inhibition (IC50) was put at 7 nM.

Turning to `O=C(COc1ccc(OC(F)(F)F)cc1Cl)N1C[C@@H]2CN(C(=O)c3ccc4[nH]nnc4c3)C[C@H]2C1` [Example 15.91], 12 nM corresponded to half-maximal inhibition (IC50).

In turn, `O=C(COc1ccccc1-n1cccc1)N1C[C@@H]2CN(C(=O)c3ccc4[nH]nnc4c3)C[C@H]2C1` [Example 15.92] returned an IC50 of 249 nM.

In the case of `COc1cc(C#N)ccc1OCC(=O)N1C[C@@H]2CN(C(=O)c3ccc4[nH]nnc4c3)C[C@H]2C1` [Example 15.93], the IC50 was 921 nM.

`N#Cc1ccc(OCC(=O)N2C[C@@H]3CN(C(=O)c4ccc5[nH]nnc5c4)C[C@H]3C2)cc1` [Example 15.94]: the midpoint of inhibition, the IC50, lay at 1020 nM.

On to `O=C(COc1ccccc1)N1C[C@@H]2CN(C(=O)c3ccc4[nH]nnc4c3)C[C@H]2C1` [Example 15.95], for which the IC50 came out at 1900 nM.

Molecule `N#Cc1cc(OC(F)(F)F)ccc1OCC(=O)N1C[C@@H]2CN(C(=O)c3ccc4[nH]nnc4c3)C[C@H]2C1` [Example 15.96] yielded an IC50 of 74 nM.

`Cc1ccc(C(C)C)c(OCC(=O)N2CC[C@@H]3CN(C(=O)c4ccc5[nH]nnc5c4)C[C@@H]3CC2)c1` [Example 15.97]: the 50% inhibitory concentration (IC50) turned out to be 9 nM. Compared with the last molecule, the IC50 is about 8.2-fold lower.

`O=C(c1ccc2[nH]nnc2c1)N1C[C@H]2CN(C(=O)c3cc4ccc(OC(F)(F)F)cc4[nH]3)C[C@@H]2C1` [Example 15.98] displayed an IC50 of 13 nM.

With `O=C(c1ccc2[nH]nnc2c1)N1C[C@H]2CN(C(=O)c3cc4cc(OC(F)(F)F)ccc4[nH]3)C[C@@H]2C1` [Example 15.99], the IC50 amounted to 12 nM.

`O=C(/C=C/c1ccc([S+]([O-])C(F)(F)F)cc1)N1CC[C@@H]2CN(C(=O)c3ccc4[nH]nnc4c3)C[C@@H]2CC1` (stereo partly drawn) [Example 16, (E)-1-((3aR,8aS)-2-(1H-benzo[d][1,2,3]triazole-5-carbonyl)octahydropyrrolo[3,4-d]azepin-6(7H)-yl)-3-(4-(trifluoromethylsulfinyl)phenyl)prop-2-en-1-one] registered an IC50 of 15 nM.

`O=C(CCc1ccc(OC(F)(F)F)c(F)c1)N1CC[C@@H]2CN(C(=O)c3ccc4[nH]nnc4c3)C[C@@H]2CC1` [Example 17, 1-((3aR,8aS)-2-(1H-Benzo[d][1,2,3]triazole-5-carbonyl)octahydropyrrolo[3,4-d]azepin-6(7H)-yl)-3-(3-fluoro-4-(trifluoromethoxy)phenyl)propan-1-one] gave an IC50 of 4 nM.

Molecule `CN(Cc1cnn[nH]1)C(=O)N1C[C@H]2CCN(C(=O)CCc3ccc(OC(F)(F)F)cc3)CC[C@H]2C1` [Example 17.01, (3aR,8aS)-N-((1H-1,2,3-triazol-5-yl)methyl)-N-methyl-6-(3-(4-(trifluoromethoxy)phenyl)-propanoyl)octahydropyrrolo[3,4-d]azepine-2(1H)-carboxamide] showed an IC50 of 85 nM.

Take `CN(Cc1cnn[nH]1)C(=O)N1C[C@H]2CCN(C(=O)CCc3ccc(OC(F)(F)F)c(F)c3)CC[C@H]2C1` [Example 17.02, (3aR,8aS)-N-((1H-1,2,3-triazol-5-yl)methyl)-6-(3-(3-fluoro-4-(trifluoromethoxy)phenyl)-propanoyl)-N-methyloctahydropyrrolo[3,4-d]azepine-2(1H)-carboxamide]: the IC50 was 101 nM.

`O=C(CCc1ccc(OC(F)F)cc1)N1C[C@@H]2CN(C(=O)c3ccc4[nH]nnc4c3)C[C@H]2C1` [Example 17.03, 1-[(3aR,6aR)-5-(1H-benzotriazole-5-carbonyl)-hexahydro-pyrrolo[3,4-c]pyrrol-2-yl]-3-(4-difluoromethoxy-phenyl)-propan-1-one]: half-maximal inhibition (IC50) was put at 16 nM.

In turn, `O=C(CCc1ccc(OC(F)(F)F)cc1F)N1C[C@@H]2CN(C(=O)c3ccc4[nH]nnc4c3)C[C@H]2C1` [Example 17.04, 1-[(3aR,6aR)-5-(1H-benzotriazole-5-carbonyl)-hexahydro-pyrrolo[3,4-c]pyrrol-2-yl]-3-(2-fluoro-4-trifluoromethoxy-phenyl)-propan-1-one] registered an IC50 of 8 nM. Compared with the last molecule, the IC50 is about 2-fold lower.

`O=C(CCc1ccc(F)cc1C(F)(F)F)N1CC[C@@H]2CN(C(=O)c3ccc4[nH]nnc4c3)C[C@@H]2CC1` [Example 17.05, 1-((3aR,8aS)-2-(1H-benzo[d][1,2,3]triazole-5-carbonyl)octahydropyrrolo[3,4-d]azepin-6(7H)-yl)-3-(4-fluoro-2-(trifluoromethyl)phenyl)propan-1-one] returned an IC50 of 6 nM. The IC50 values of the last two molecules are within 1.5-fold of each other.

Consider `Cc1cc(OC(F)(F)F)ccc1CCC(=O)N1CC[C@@H]2CN(C(=O)c3ccc4[nH]nnc4c3)C[C@@H]2CC1` [Example 17.06, 1-((3aR,8aS)-2-(1H-benzo[d][1,2,3]triazole-5-carbonyl)octahydropyrrolo[3,4-d]azepin-6(7H)-yl)-3-(2-methyl-4-(trifluoromethoxy)phenyl)-propan-1-one], for which the IC50 amounted to 10 nM. Against the preceding molecule, the IC50 is about 1.7-fold higher.

With `COc1ccc(CCC(=O)N2CC[C@@H]3CN(C(=O)c4ccc5[nH]nnc5c4)C[C@@H]3CC2)cc1F` [Example 17.07, 1-((3aR,8aS)-2-(1H-benzo[d][1,2,3]triazole-5-carbonyl)octahydropyrrolo[3,4-d]azepin-6(7H)-yl)-3-(3-fluoro-4-methoxyphenyl)propan-1-one], the IC50 came to 43 nM.

Molecule `CC(C)c1ccccc1CCC(=O)N1CC[C@@H]2CN(C(=O)c3ccc4[nH]nnc4c3)C[C@@H]2CC1` [Example 17.08, 1-[(3aS,8aR)-2-(1H-benzotriazole-5-carbonyl)-octahydro-pyrrolo[3,4-d]azepin-6-yl]-3-(2-isopropyl-phenyl)-propan-1-one] showed an IC50 of 16 nM.

For the molecule `O=C(CCc1ccc(C(F)(F)F)cn1)N1C[C@@H]2CN(C(=O)c3ccc4[nH]nnc4c3)C[C@H]2C1` [Example 17.09, 1-[(3aR,6aR)-5-(1H-benzotriazole-5-carbonyl)-hexahydro-pyrrolo[3,4-c]pyrrol-2-yl]-3-(5-trifluoromethyl-pyridin-2-yl)-propan-1-one], the IC50 was determined as 58 nM.

The molecule `O=C(CCc1ccc(-c2ccccc2)cn1)N1C[C@@H]2CN(C(=O)c3ccc4[nH]nnc4c3)C[C@H]2C1` [Example 17.10, 1-[(3aR,6aR)-5-(1H-benzotriazole-5-carbonyl)-hexahydro-pyrrolo[3,4-c]pyrrol-2-yl]-3-(5-phenyl-pyridin-2-yl)-propan-1-one] gave an IC50 of 21 nM.

On to `O=C(CCc1ccc(-c2ccncc2)cc1)N1C[C@@H]2CN(C(=O)c3ccc4[nH]nnc4c3)C[C@H]2C1` [Example 17.11, 1-[(3aR,6aR)-5-(1H-benzotriazole-5-carbonyl)-hexahydro-pyrrolo[3,4-c]pyrrol-2-yl]-3-(4-pyridin-4-yl-phenyl)-propan-1-one], for which the 50% inhibitory concentration (IC50) turned out to be 28 nM.

`O=C(CCc1ccc(-c2cccnc2)cc1)N1C[C@@H]2CN(C(=O)c3ccc4[nH]nnc4c3)C[C@H]2C1` [Example 17.12, 1-[(3aR,6aR)-5-(1H-benzotriazole-5-carbonyl)-hexahydro-pyrrolo[3,4-c]pyrrol-2-yl]-3-(4-pyridin-3-yl-phenyl)-propan-1-one] gave an IC50 of 32 nM. The IC50 values of the last two molecules are within 1.5-fold of each other.

`O=C(CCc1ccc(-c2ccccn2)cc1)N1C[C@@H]2CN(C(=O)c3ccc4[nH]nnc4c3)C[C@H]2C1` [Example 17.13, 1-[(3aR,6aR)-5-(1H-benzotriazole-5-carbonyl)-hexahydro-pyrrolo[3,4-c]pyrrol-2-yl]-3-(4-pyridin-2-yl-phenyl)-propan-1-one]: inhibition was half-maximal at 31 nM (IC50).

`O=C(CCc1ccc(OC(F)(F)F)cc1)N1CC[C@@H]2CN(C(=O)NCCc3cnn[nH]3)C[C@@H]2CC1` [Example 17.14, (3aS,8aR)-6-[3-(4-trifluoromethoxy-phenyl)-propionyl]-octahydro-pyrrolo[3,4-d]azepine-2-carboxylic acid [2-(3H-[1,2,3]triazol-4-yl)-ethyl]-amide] had an IC50 of 464 nM. This IC50 is about 15-fold higher than that of the molecule before.

`O=C(CCc1cc(Cl)cc(C(F)(F)F)c1)N1CC[C@@H]2CN(C(=O)c3ccc4[nH]nnc4c3)C[C@@H]2CC1` [Example 17.17, 1-((3aR,8aS)-2-(1H-benzo[d][1,2,3]triazole-5-carbonyl)octahydropyrrolo[3,4-d]azepin-6(7H)-yl)-3-(3-chloro-5-(trifluoromethyl)phenyl)propan-1-one]: the IC50 was found to be 4 nM.

In turn, `COc1ccc(CCC(=O)N2CC[C@@H]3CN(C(=O)c4ccc5[nH]nnc5c4)C[C@@H]3CC2)c(C(F)(F)F)c1` [Example 17.18, 1-((3aR,8aS)-2-(1H-benzo[d][1,2,3]triazole-5-carbonyl)octahydropyrrolo[3,4-d]azepin-6(7H)-yl)-3-(4-methoxy-2-(trifluoromethyl)phenyl)propan-1-one] returned an IC50 of 14 nM.
